Test results reported in patent US12448393B2, “Use of novel compound, for preventing, improving or treating amyotrophic lateral sclerosis” (PRG S&TECH INC., priority 2019, dated 2025).
“Also recorded” adds a separate entry of the source.

Experiments:
normal human fibroblasts = assay: Cell viability measurement (MTT), normal fibroblasts; type: cell-based; details: for cytotoxic effect in normal fibroblasts: MTT, FIG. 4E, FIG. 9B; for Toxicity (MTT): Table 1, cell type not given, neurons (FIG. 9A) and normal fibroblasts (FIG. 9B)
Procedure: (§1) HEK293 cells were purchased from American Type Culture Collection (ATCC, Manassas, VA, USA) and maintained at 37° C. and 5% CO2 in DMEM liquid medium including 10% fetal bovine serum and 1% penicillin-streptomycin. SK—N—SH cells were purchased from Korean Cell Line Bank (KCLB, Seoul, South Korea) and maintained in MEM medium including 10% fetal bovine serum, 1% antibiotic, 25 mM HEPES, and 300 mg/L L-Glu. Human fibroblasts (person) were purchased from Coriell Cell Repositories (New Jersey, USA) and maintained in EMEM including 15% FBS, 2 mM Glutamine, and 26 mM HEPES without antibiotics. Thapsigargin (ER calcium scavenger: CAS 67526-95-8) was purchased from Calbiochem (Darmstadt, Germany). CoCl2 (hypoxia-inducer: C8661) was purchased from Sigma Aldrich (St, Louis, Mo, USA).
(§2) To check cells viability, the cells were reacted with 0.5 mg/ml MTT solution (475989; Merck, Darmstadt, Germany) at 37° C. for 4 hours. After removing residual solution and washing with PBS, precipitate was dissolved in 200 μl DMSO, and quantified by measuring absorbance at 540 nm.

neurons = assay: Cell viability measurement (MTT), neurons; type: cell-based; details: FIG. 9A
Procedure: as §1, §2

[1] = Pharmacokinetics (PK) analysis; type: in vivo; details: for PK study BA: Table 1
[2] = test system: WT-SOD1 and mutant SOD1-GST (A4V, G37R, G85R, G93A); assay: ELISA compound screening for binding inhibitor between WT-SOD1 and mutant SOD1; design: species or system human; details: Table 1; compounds at final concentration of 50 μM
Procedure: For compound screening, the present inventors applied an ELISA assay system. To select a binding inhibitor between WT-SOD1 and mutant SOD1, the present inventors used 0.5% paraformaldehyde (PFA) to fix WT-SOD1 recombinant protein on a 96-well plate. The plate was dried, washed with phosphate-buffered saline (PBS), and reacted with the compounds at a final concentration of 50 μM, and then mutant SOD1-GST (A4V, G37R, G85R, G93A) proteins were added. After 2 hours of reaction, the 96-well plate was washed with PBS and blocked with 3% skim milk to prevent non specific reaction. The plate was reacted with anti-GST antibody (diluted at 1:10,000) for 1 hour, and then reacted with anti-mouse IgG-HRP (diluted at 1:50,000) for 1 hour. After washing twice, the plate was reacted with a 3,3′,5,5′-tetramethylbenzidine (TMB) solution (Calbiochem) for 30 minutes and a stop solution (1N H2SO4) for 30 minutes. Finally, the present inventors analyzed values using an ELISA reader (450 nm absorbance). Negative control (−; red line) was reacted without mutant SOD1, and positive control (+; blue line) was reacted with mutant SOD1 without the compounds.
To prepare recombinant proteins, human SOD1 (WT, A4V, G37R, G85R, G93A) was added to EcoRI and HindIII sites of pGEX-TEV vector, an improved vector made by adding a TEV protease cleavage site to pGEX-4T1 (Invitrogen). The recombinant proteins were expressed as GST-fusion proteins in Escherichia coli (E. coli) strain BL21 (DE3). The proteins were purified by glutathione-affinity chromatography.

SOD1 [3] = assay: Western blot / native gel analysis of SOD1 aggregation; type: cell-based, human; details: Table 1; effect on SOD1 aggregation, native / non-SDS-PAGE gel
Procedure: Using RIPA buffer (50 mM Tris-Cl, pH 7.5, 150 mM NaCl, 1% NP-40, 0.1% SDS and […]) for SDS-PAGE and lysis buffer (50 mM Tris-Cl, pH 7.5, 150 mM NaCl, 0.3% NP-40) for Native-PAGE, proteins were extracted from cells. Samples were separated by the SDS-PAGE or the Native-PAGE and transferred to PVDF membrane. Blotted membrane was blocked with TBST buffer including 3% skim milk for 1 hour, and reacted with specific antibodies. The reacted antibodies were detected by ECL and X-ray film exposure. Antibodies used in the present disclosure are as follows: pan-SOD1 (GTX100554) was purchased from Genetex (California, USA). Misfolded SOD1-specific antibody (B8H10) was purchased from MediMabs (Montreal, Canada). Actin (sc-1616), GST (sc-138), and GFP (Green fluorescent protein; sc-8036) were purchased from Santa Cruz biotechnology (Santa Cruz, CA, USA). TDP-43 antibody (10782-2-AP) was purchased from Proteintech (Rosemont, IL, USA). Anti-FLAG (Sigma; F3165) was purchased from Sigma Aldrich (St, Louis, Mo, USA), and HRP-conjugated goat anti-mouse, goat anti-rabbit, and mouse anti-goat antibodies (Pierce, Thermo Fisher Scientific, Inc., Rockford, IL, USA) were used as secondary antibodies.
(§3) GFP-SOD1 (WT, G85R, G93A), non-tagged SOD1 (WT, A4V, G37R, G85R, G93A) and tdTomato-TDP43 expression vectors were purchased from Addgene (Cambridge, MA, USA). Transfection was performed using Jet-PEI reagent (JetPEI; Polyplus transfection, New York, NY, USA) according to the manufacturer's protocol. Briefly, vectors were mixed with JetPEI reagent in 150 mM NaCl buffer, and then mixture was reacted for 15 minutes. The mixture was added to cells in serum-free medium and reacted for 4 hours. After reaction, the cells were replaced with a culture medium supplemented with 10% FBS.

SOD1^G93A-Tg mice = assay: In vivo drug treatment of ALS model mice (grip strength, behaviour, histology, survival); design: species or system mouse; details: for effects in ALS model mice: FIGS. 11A and 11B, summary statements; for In vivo: Table 1, ALS model mice
Procedure: An experiment was performed in a facility approved by the Association for Laboratory Animal Care Assessment and Accreditation in accordance with the animal policy approved by Busan National University. B6SJL-Tg (SOD1^G93A) mice were purchased from Jackson Laboratory (Stock No: 002726). All mice were maintained under temperature and light-controlled conditions (20˜23° C., light-dark cycle 12 hr-12 hr) and were provided with sterile food and water.
Vehicle (DMSO) and SLC-B036 (10 mg/kg, 20 mg/kg) were administered to 12-week-old or 14-week-old SOD1^G93A mice via intraperitoneal injection twice weekly for 6 weeks. Control mice were treated under the same conditions. For histological analysis, mice were sacrificed at 18 weeks. After dissection of mice, spinal cord was fixed with 4% paraformaldehyde for 48 hours according to basic tissue processing procedures, and embedded in a paraffin block. An embedded tissue (cervical region of the spinal cord) was cut into 5 μm with a Leica microtome, and transferred to an adhesive-coated slide (Marienfeld laboratory glassware, Germany). After deparaffinization and rehydration, the slide was stained with hematoxylin and eosin to determine the number of spinal nerves.
For behavioral experiment, grip strength was checked every 2 weeks using a grip strength meter. The mice were allowed to grasp a tension bar with their forelimbs, and then their tails were slowly pulled until they released the bar. To observe motility, respiration, and quadriplegia of the mice, image analysis was performed at the end of administration (18-20 weeks).

SOD1 [4] = assay: Immunofluorescence staining of SOD1 aggregation and misfolded SOD1; type: cell-based, human; details: Table 1; IF staining of SOD1
Procedure: Cells on coverslip were washed with PBS, fixed with 4% PFA at room temperature for 30 minutes, and then infiltrated with 0.1% Triton X-100/PBS for 10 minutes. The cells were treated with blocking solution (anti-Human Antibody 1:500 dilution in PBS) for 1 hour, and then cells were reacted with anti-pan SOD1 (1:400 dilution), misfolded SOD1 (B8H10; 1:200 dilution in blocking solution) at 4° C. overnight. Finally, the cells were reacted with FITC and rhodamine-conjugated secondary antibody at 4° C. for 6 hours. Nuclei were stained with 4,6-diamidino-2-phenylindole (DAPI), and endoplasmic reticula (ERs) were stained with ER-Tracker Red dye for 10 minutes. The cells were washed 3 times with PBS, and then coverslips were mounted with mounting solution [H-5501; Vector Laboratories (Burlingame, CA, USA)] and analyzed by fluorescence microscopy (Zeiss).
as §3

PK study BA [1]	ELISA [2]	PK profile ([1]; FIG. 10)	SMILES	cytotoxic effect in normal fibroblasts (normal human fibroblasts)	Toxicity (MTT) (normal human fibroblasts)	cytotoxicity in neurons (neurons)	Western Blot (SOD1 [3])	effects in ALS model mice (SOD1^G93A-Tg mice)	In vivo (SOD1^G93A-Tg mice)	Immuno-fluorscence (SOD1 [4])
(0.3%)	Effect ○		COc1cc(/C=C/CO[C@H]2Cc3cc4ccc(=O)oc4cc3OC2(C)C)ccc1O [PRG-A-02, (S,E)-7-((3-(4-hydroxy-3-methoxyphenyl)allyl)oxy)-8,8-dimethyl-7,8-dihydro-2H,6H-pyrano[3,2-g]chromen-2-one]	did not exhibit cytotoxicity	No	did not exhibit cytotoxicity	Effect ○	good effects	Effect ○	Effect ○
(3.7%)	Effect ○		CC1(C)Oc2cc3oc(=O)ccc3cc2C[C@@H]1OC(=O)/C=C/c1ccc(F)cc1 [PRG-A-03, (S)-8,8-dimethyl-2-oxo-7,8-dihydro-2H,6H-pyrano[3,2-g]chromen-7-yl (E)-3-(4-fluorophenyl) acrylate]	did not exhibit cytotoxicity	No	did not exhibit cytotoxicity	Effect ○	good effects	Effect ○	Effect ○
60.7%	Effect ○	appropriate PK profile	COc1cc(/C=C/CO[C@H]2Cc3cc4ccc(=O)oc4cc3OC2(C)C)ccc1[N+](=O)[O-] [PRG-A-04, (S,E)-7-((3-(3-methoxy-4-nitrophenyl)allyl)oxy)-8,8-dimethyl-7,8-dihydro-2H,6H-pyrano[3,2-g]chromen-2-one]	did not exhibit cytotoxicity	No	did not exhibit cytotoxicity	Effect ○	Excellent effects; also recorded: good effects	Effect ○	Effect ○
